Test results: ChEMBL document CHEMBL3217482, “Synthesis and biological evaluation of novel 1-aryl, 5-(phenoxy-substituted)aryl-1,4-pentadien-3-one derivatives” (Medchemcomm, 2011)

Assays:
Bcap37 [1] = test: Antiproliferative against human Bcap37 cells assessed as growth inhibition at 1 uM after 72 hrs by MTT assay relative to control; assay type: functional; conditions: Bcap37, 72 h, read-out: GI
PC-3 [2] = test: Antiproliferative against human PC3 cells assessed as growth inhibition at 1 uM after 72 hrs by MTT assay relative to control; assay type: functional; conditions: PC-3, 72 h, read-out: GI
[3] = Antiproliferative against human BGC823 cells assessed as growth inhibition after 72 hrs by MTT assay; assay type: functional, cell-based; conditions: BGC-823, 72 h
[4] = Antiproliferative against human BGC823 cells assessed as growth inhibition at 10 uM after 72 hrs by MTT assay relative to control; assay type: functional; conditions: BGC-823, 72 h, read-out: GI
Bcap37 [5] = test: Antiproliferative against human Bcap37 cells assessed as growth inhibition at 10 uM after 72 hrs by MTT assay relative to control; assay type: functional; conditions: Bcap37, 72 h, read-out: GI
[6] = Antiproliferative against human BGC823 cells assessed as growth inhibition at 1 uM after 72 hrs by MTT assay relative to control; assay type: functional; conditions: BGC-823, 72 h, read-out: GI
PC-3 [7] = test: Antiproliferative against human PC3 cells assessed as growth inhibition at 10 uM after 72 hrs by MTT assay relative to control; assay type: functional; conditions: PC-3, 72 h, read-out: GI
Bcap37 [8] = test: Antiproliferative against human Bcap37 cells assessed as growth inhibition after 72 hrs by MTT assay; assay type: functional, cell-based; conditions: Bcap37, 72 h

Structure (SMILES) | inhibition of growth at 1 µM (Bcap37 [1]) | inhibition of growth at 1 µM (PC-3 [2]) | IC50 [3] | inhibition of growth at 10 µM [4] | inhibition of growth at 10 µM (Bcap37 [5]) | inhibition of growth at 1 µM [6] | inhibition of growth at 10 µM (PC-3 [7]) | IC50 (Bcap37 [8])
COc1cccc2c1C(=O)c1c(O)c3c(c(O)c1C2=O)C[C@@](O)(C(=O)CO)C[C@@H]3O[C@H]1C[C@H](N)[C@H](O)[C@H](C)O1 [DOXORUBICIN] | 84.2% | 88.2% | 2.6 µM | 95.9% | 93.1% | 90.7% | 94.7% | 2 µM
CC[C@@]1(O)C(=O)OCc2c1cc1n(c2=O)Cc2cc3cc(O)ccc3nc2-1 [HYDROXYCAMPTOTHECIN] | 8.8% | 17.1% | – | 26.5% | 33.5% | 7.3% | 37% | –
